24 compounds from patent US9409961B2, “Cell penetrating peptides to target EIF4E” (Hoffmann-La Roche Inc., priority 2012, dated 2016) can be followed below.

Square brackets hold non-standard residues; d marks the D form. Peptide text beside a SMILES is read from it. tBuAla = CC(C)(C)C[C@H](N)C(=O)O; Nle = CCCC[C@H](N)C(=O)O

The target of the first assay is T1, human eIF4E (Homo sapiens, UniProt P06730).
T1 construct: made in house
T1 sequence (P06730 with tags, fused parts or gaps): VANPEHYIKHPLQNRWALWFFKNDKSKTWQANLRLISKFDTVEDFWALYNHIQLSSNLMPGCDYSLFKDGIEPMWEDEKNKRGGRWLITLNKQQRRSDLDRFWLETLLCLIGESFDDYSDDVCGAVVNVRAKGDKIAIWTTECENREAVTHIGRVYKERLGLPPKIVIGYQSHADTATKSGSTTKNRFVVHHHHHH
Kind of assay: biochemical assay of peptide binding to human eIF4E (displacement of biotin labeled 4G2 peptide). As to conditions: HH-eIF4E, biotin labeled 4G2 peptide; read-out: Binding affinities expressed as IC50. The protocol: A biochemical assay was run to test peptide binding to human eIF4E.
Human eIF4E (aa 28-217, SEQ ID NO: 87) with a C-terminal His tag (HH-eIF4E, SEQ ID NO: 88) was expressed in E. coli in inclusion bodies. The protein was solubilized with 8 M urea and purified under denaturing conditions using nickel-charged HisTrap HP columns (GE Healthcare). The protein was refolded by diluting to approximately 0.25 mg/mL with 6 M urea, 20 mM Hepes pH 7.0, 500 mM NaCl, 1 mM DTT, 1 mM EDTA, and 0.5 M arginine.HCl, and then dialyzing overnight into the same buffer without the urea. The protein was further dialyzed into 20 mM Hepes pH 6.5, 50 mM NaCl, 1 mM EDTA, and 1 mM DTT, filtered, and then concentrated using Hitrap SP sepharose FF columns (GE Healthcare). The protein was dialyzed into 20 mM Hepes pH 7.0, 500 mM NaCl, 5 mM DTT, and 10% glycerol and stored at −80° C. until use.
Test peptides (1.6 mM stock in DMSO) were diluted 3 fold in series in DMSO and solutions were diluted 4 fold in Assay Buffer (50 mM NaPi, pH 6.5, 50 mM KCl, 1 mM DTT, 0.004% NP40 and 0.5 mg/ml gammaglobulin). Six microliters per well of diluted peptide solutions and 12 microliters per well of 187.5 nM HH-eIF4E in Assay Buffer were added to 384-well polypropylene microplates (Matrix, Thermal Scientific). Twelve microliters per well of 187.5 nM biotin labeled 4G2 peptide (Ac-[…]Aha-Bio)-NH2 (SEQ ID NO: 91) 1:2 TFA) in Assay Buffer was added. The samples were incubated at room temperature for 20 minutes.
Six microliters per well of 4.8 nM Eu-streptavidin (Columbia Biosciences) and 48 nM Allophycocyanin-anti His antibody (Columbia Biosciences) in Assay Buffer (without DTT) were then added and the samples were incubated at room temperature for 30 min. Assay signals were monitored by reading emission fluorescence at 665 nm on an Envision Reader (PerkinElmer Life and Analytical Sciences). IC50 values were calculated using Condoseo software (Genedata AG, Basel, Switzerland).
As a reminder, the IC50 is the point on the concentration scale where inhibition reaches its midpoint. Regarding `CCCC[C@H](NC(=O)[C@H](Cc1ccccc1)NC(=O)[C@H](CCC(N)=O)NC(=O)[C@H](Cc1ccccc1)NC(=O)[C@H](C)NC(=O)[C@H](CC(C)C)NC(=O)[C@H](CC(C)C)NC(=O)[C@H](Cc1ccccc1)NC(=O)[C@H](CCC(=O)O)NC(=O)[C@H](CCCNC(=N)N)NC(=O)[C@H](CC(=O)O)NC(=O)[C@H](Cc1ccc(O)cc1)NC(=O)[C@H](CCCNC(=N)N)NC(=O)[C@H](CCCCN)NC(C)=O)C(=O)N[C@H](C(=O)N[C@@H](Cc1ccc(O)cc1)C(=O)N[C@@H](CC(=O)O)C(=O)N[C@@H](CC(C)C)C(=O)NCC(=O)N[C@@H](CC(C)C)C(=O)N[C@@H](CCCNC(=N)N)C(=O)N[C@@H](CCCNC(=N)N)C(=O)N[C@@H](CC(C)C)C(=O)N[C@@H](CCCNC(=N)N)C(=O)N[C@@H](CCC(N)=O)C(=O)N[C@@H](CCCNC(=N)N)C(=O)N[C@@H](CCCNC(=N)N)C(=O)N[C@@H](CCCNC(=N)N)C(=O)N[C@@H](CC(C)C)C(=O)N[C@@H](CCCNC(=N)N)C(=O)N[C@@H](CCCNC(=N)N)C(N)=O)C(C)C` [SEQ ID NO: 7] (Ac-KRYDREFLLAFQF[Nle]VYDLGLRRLRQRRRLRR-NH2), the IC50 is 0.21 µM.

Still in this assay, the particulars now being: IC50 (μM), Table 2, cell-penetrating peptides with the Y----LL-F motif.
“Ac-MANLGYWLLALFVYMWTDLLLFKKRPKP-NH2 [SEQ ID NO: 16]”: the IC50 worked out at 3.03 µM.
As for “Ac-MVKSKIYSWILLLFFAMWSDVALAKKRPKP-NH2 [SEQ ID NO: 20]”, the IC50 was determined as 9.96 µM.
Same read-out and setting: the value for “Ac-MVKSKIYSWILLLFFAMWSDVGLCKKRPKP-NH2 [SEQ ID NO: 15]” was 5.2 µM; that for “Ac-MVKSKIYSWILLLFFAMWSDVKLKKKRPKP-NH2 [SEQ ID NO: 21]” was 6.85 µM; that for “Ac-MVKSKYGSWILLLFVAMWSDVGLCKKRPKP-NH2 [SEQ ID NO: 13]” was 6.89 µM.

The same assay, now with this note: IC50 (μM), Table 2a, cell penetrating peptides with the Y----LL-F and YWLLALFVY motifs.
As to `CCCC[C@H](NC(=O)[C@H](CC(C)C)NC(=O)[C@H](CC(=O)O)NC(=O)[C@@H](NC(=O)[C@H](Cc1c[nH]c2ccccc12)NC(=O)[C@H](CCSC)NC(=O)[C@H](Cc1ccc(O)cc1)NC(=O)[C@@H](NC(=O)[C@H](Cc1ccccc1)NC(=O)[C@H](CC(C)C)NC(=O)[C@H](C)NC(=O)[C@H](CC(C)C)NC(=O)[C@H](CC(C)C)NC(=O)[C@H](Cc1c[nH]c2ccccc12)NC(=O)[C@H](Cc1ccc(O)cc1)NC(=O)[C@H](C)NC(=O)[C@H](CC(C)C)NC(=O)[C@H](C)NC(=O)[C@H](C)NC(=O)[C@H](CCSC)NC(C)=O)C(C)C)[C@@H](C)O)C(=O)N[C@@H](CC(C)C)C(=O)N[C@@H](Cc1ccccc1)C(=O)N[C@@H](CCCCN)C(=O)N[C@@H](CCCCN)C(=O)N[C@@H](CCCNC(=N)N)C(=O)N1CCC[C@H]1C(=O)N[C@@H](CCCCN)C(=O)N1CCC[C@H]1C(N)=O` [SEQ ID NO: 28] (Ac-MAALAYWLLALFVYMWTDL[Nle]LFKKRPKP-NH2), the IC50 stood at 4.59 µM.
In turn, `CCCC[C@H](NC(=O)[C@H](CC(C)C)NC(=O)[C@H](CC(=O)O)NC(=O)[C@@H](NC(=O)[C@H](Cc1c[nH]c2ccccc12)NC(=O)[C@H](CCSC)NC(=O)[C@H](Cc1ccc(O)cc1)NC(=O)[C@@H](NC(=O)[C@H](Cc1ccccc1)NC(=O)[C@H](CC(C)C)NC(=O)[C@H](C)NC(=O)[C@H](CC(C)C)NC(=O)[C@H](CC(C)C)NC(=O)[C@H](Cc1c[nH]c2ccccc12)NC(=O)[C@H](Cc1ccc(O)cc1)NC(=O)[C@H](CCCCN)NC(=O)[C@H](CC(C)C)NC(=O)[C@H](CCCCN)NC(=O)[C@H](C)NC(=O)[C@H](CCSC)NC(C)=O)C(C)C)[C@@H](C)O)C(=O)N[C@@H](CC(C)C)C(=O)N[C@@H](Cc1ccccc1)C(=O)N[C@@H](CCCCN)C(=O)N[C@@H](CCCCN)C(=O)N[C@@H](CCCNC(=N)N)C(=O)N1CCC[C@H]1C(=O)N[C@@H](CCCCN)C(=O)N1CCC[C@H]1C(N)=O` [SEQ ID NO: 29] (Ac-MAKLKYWLLALFVYMWTDL[Nle]LFKKRPKP-NH2) gave an IC50 of 7.39 µM.
On the same count and under the same terms, the value for `CSCC[C@H](NC(=O)[C@H](Cc1ccc(O)cc1)NC(=O)[C@@H](NC(=O)[C@H](Cc1ccccc1)NC(=O)[C@H](CC(C)C)NC(=O)[C@H](C)NC(=O)[C@H](CC(C)C)NC(=O)[C@H](CC(C)C)NC(=O)[C@H](Cc1c[nH]c2ccccc12)NC(=O)[C@H](Cc1ccc(O)cc1)NC(=O)[C@H](C)NC(=O)[C@H](CC(C)C)NC(C)=O)C(C)C)C(=O)N[C@@H](Cc1c[nH]c2ccccc12)C(=O)N[C@H](C(=O)N[C@@H](CC(=O)O)C(=O)N[C@@H](CC(C)C)C(=O)N[C@@H](CCCNC(=N)N)C(=O)N[C@@H](CC(C)C)C(=O)N[C@@H](CC(C)(C)C)C(=O)N[C@@H](CCCCN)C(=O)N[C@@H](CCCCN)C(=O)N[C@@H](CCCNC(=N)N)C(=O)N1CCC[C@H]1C(=O)N[C@@H](CCCCN)C(=O)N1CCC[C@H]1C(N)=O)[C@@H](C)O` [SEQ ID NO: 32] (Ac-LAYWLLALFVYMWTDLRL[tBuAla]KKRPKP-NH2) was 4.73 µM; that for `CCCC[C@H](NC(=O)[C@H](Cc1ccc(O)cc1)NC(=O)[C@@H](NC(=O)[C@H](Cc1ccccc1)NC(=O)[C@H](CC(C)C)NC(=O)[C@H](C)NC(=O)[C@H](CC(C)C)NC(=O)[C@H](CC(C)C)NC(=O)[C@H](Cc1c[nH]c2ccccc12)NC(=O)[C@H](Cc1ccc(O)cc1)NC(=O)[C@H](C)NC(=O)[C@H](CC(C)C)NC(=O)[C@H](CC(N)=O)NC(=O)[C@H](C)NC(=O)[C@H](CCSC)NC(C)=O)C(C)C)C(=O)N[C@@H](Cc1c[nH]c2ccccc12)C(=O)N[C@H](C(=O)N[C@@H](CC(=O)O)C(=O)N[C@@H](CC(C)C)C(=O)N[C@@H](CCCNC(=N)N)C(=O)N[C@@H](CC(C)C)C(=O)N[C@@H](Cc1ccccc1)C(=O)N[C@@H](CCCCN)C(=O)N[C@@H](CCCCN)C(=O)N[C@@H](CCCNC(=N)N)C(=O)N1CCC[C@H]1C(=O)N[C@@H](CCCCN)C(=O)N1CCC[C@H]1C(N)=O)[C@@H](C)O` [SEQ ID NO: 39] (Ac-MANLAYWLLALFVY[Nle]WTDLRLFKKRPKP-NH2) was 1.75 µM; that for “Ac-ANLAYWLLALFVYMWTDLRLFKKRPKP-NH2 [SEQ ID NO: 34]” was 2.22 µM.
The same measure, in the same setting: to “Ac-AYWLLALFVYMWTDLRLFKKRPKP-NH2 [SEQ ID NO: 36]” belongs 2.53 µM; to “Ac-LAYWLLALFVYMWTDLRLAKKRPKP-NH2 [SEQ ID NO: 33]”, 6.24 µM.
“Ac-LAYWLLALFVYMWTDLRLFKKRPKP-NH2 [SEQ ID NO: 31]” displayed an IC50 of 4.35 µM.
In turn, “Ac-MAALAYWLLALFVYMWTDLLLFKKRPKP-NH2 [SEQ ID NO: 27]” showed an IC50 of 10.7 µM.
Still for that read-out and setting: the value for “Ac-MANLAYWLLALFVYLWTDLRLFKKRPKP-NH2 [SEQ ID NO: 38]” was 3.04 µM.
For the compound “Ac-MANLAYWLLALFVYMFTDLRLFKKRPKP-NH2 [SEQ ID NO: 42]”, the concentration for half-maximal inhibition (IC50) was 3.91 µM.
“Ac-MANLAYWLLALFVYRWTDLRLFKKRPKP-NH2 [SEQ ID NO: 41]”: the IC50 turned out to be 3.48 µM.

Still in this assay, the particulars now being: IC50 (μM), Table 3, cell-penetrating peptides without the Y----LL-F motif.
The compound `CCCC[C@H](NC(=O)[C@H](CC(C)C)NC(=O)[C@H](CO)NC(=O)[C@H](C)NC(=O)[C@@H](NC(=O)[C@H](CCCCN)NC(=O)[C@H](Cc1ccc(O)cc1)NC(=O)[C@H](CCCCN)NC(=O)[C@@H](NC(=O)[C@H](CCSC)NC(C)=O)C(C)C)[C@@H](C)CC)C(=O)N[C@@H](CC(C)C)C(=O)N[C@@H](Cc1ccccc1)C(=O)N[C@@H](CC(C)C)C(=O)N[C@@H](Cc1ccccc1)C(=O)N[C@H](C(=O)N[C@@H](C)C(=O)N[C@@H](CCSC)C(=O)N[C@@H](Cc1c[nH]c2ccccc12)C(=O)N[C@@H](CO)C(=O)N[C@@H](CC(=O)O)C(=O)N[C@H](C(=O)N[C@@H](C)C(=O)N[C@@H](CC(C)C)C(=O)N[C@@H](C)C(=O)N[C@@H](CCCCN)C(=O)N[C@@H](CCCCN)C(=O)N[C@@H](CCCNC(=N)N)C(=O)N1CCC[C@H]1C(=O)N[C@@H](CCCCN)C(=O)N1CCC[C@H]1C(N)=O)C(C)C)C(C)C` [SEQ ID NO: 45] (Ac-MVKYKIASL[Nle]LFLFVAMWSDVALAKKRPKP-NH2) showed an IC50 of 3.06 µM.
In the case of “Ac-LAYWLLALFVAMWTDLRLFKKRPKP-NH2 [SEQ ID NO: 49]”, the IC50 worked out at 1.99 µM.
Same read-out and setting: the value for “Ac-LLALFVYMWTDLRLFKKRPKP-NH2 [SEQ ID NO: 51]” was 3.75 µM.

The same assay, now with this note: Table 1, peptides which bind eIF4E but are not cell-penetrating; read-out: IC50.
Take `CCCC[C@H](NC(=O)[C@H](Cc1ccccc1)NC(=O)[C@H](CCC(N)=O)NC(=O)[C@H](Cc1ccccc1)NC(=O)[C@H](C)NC(=O)[C@H](CC(C)C)NC(=O)[C@H](CC(C)C)NC(=O)[C@H](Cc1ccccc1)NC(=O)[C@H](CCC(=O)O)NC(=O)[C@H](CCCNC(=N)N)NC(=O)[C@H](CC(=O)O)NC(=O)[C@H](Cc1ccccc1)NC(=O)[C@H](CCCNC(=N)N)NC(=O)[C@H](CCCCN)NC(C)=O)C(N)=O` [SEQ ID NO: 84] (Ac-KRFDREFLLAFQF[Nle]-NH2): the IC50 came to 4.07 µM.
Same read-out and setting: the value for Ac-KQYDREFLLDFQFMPA-NH2 [SEQ ID NO: 52] was 10.5 µM.

The same assay, now with this note: Table 2, cell-penetrating peptides with the Y----LL-F motif; read-out: IC50.
Regarding “Ac-GAAEAAAYVYDLLLRFLRQRRRLRRERVRA-NH2 [SEQ ID NO: 25]”, the IC50 amounted to 11 µM.
